Consider nine molecules from patent publication US3995061A, “Pharmaceutical composition and method of using the same” (Chugai Seiyaku Kabushiki Kaisha, priority 1974, dated 1976).

The subject of series [1] is blood platelet. Kind of series: Aggregation inhibition activity of blood platelet (ADP-induced, platelet rich plasma of orally dosed rats). In kind it is in vivo, Wister-Imamich strain male rats. Conditions: rat, 20 mg/kg oral, 6 hours; adenosine-5'-diphosphate 10^-5 M in platelet rich plasma. Here is the method:
In this Example Wister-Imamich strain male rats weighing 230 ± 30 g which had been bred with the use of a commercial chow, CLEA CE-2 were used.
The rats were divided into groups of five members each, and orally administered with a different ascochlorin derivative as a suspension in 2% gum arabic aqueous solution in a dose of 20 mg/kg.body weight. Six hours after the administration, the blood of each rat was sampled from the heart and after the addition of citric acid, the blood sample was centrifuged at 1,500 r.p.m. for 10 minutes to obtain platelet rich plasma. The anti-aggregation effect when the concentration of adenosine-5'-diphosphatein the platelet rich plasma is ultimately 10^^-5 M is shown in Table II.
As positive controls, ascochlorin, ethyl-α-(p-chlorophenoxy) isobutylate and acetyl salicyclic acid were used. The aggregation inhibition ratio was evaluated in percent by comparing the increase of transmission rate caused by the addition of adenosin-5'-diphosphate to platelet rich plasma of the control group (no medication) with that caused on the groups administered with an ascochlorin derivative which is calculated for 100.

Series [2] deals with Cholesterol in serum. Kind of series: Serum cholesterol lowering activity in rats on high-fat feed, single oral dose. In kind it is in vivo, Wister-Imamich strain male rats. The conditions noted are these: rat, 75 mg/kg oral, 6 hours after administration. From the text:
The cholesterol lowering activity of the ascochlorin derivatives of this invention was observed by the use of Wister-Imamich strain male rats weighing 230 ± 30 g which had been bred with the use of high-fat feed comprising 1000 g of powdery chow CLEA CE-2 (sold by NIHON CLEA KABUSHIKI KAISHA) admixed with 10 g of cholesterol, 95 g of hydrogenated coconut oil, 2 g of cholic acid, 150 g of milk casein and 671 g of sucrose.
The rats were divided into groups of five members each, and orally administered with a different ascochlorin derivative as a suspension in gum arabic aqueous solution in a dose of 75 mg/kg.body weight. The rats were kept from eating food, and 6 hours after the administration, the blood of each rat was sampled from its heart. The total amount of cholesterol in serum was determined by a modified Zurkowski method (Clinical Chemistry, 10, 451, 1964) with the use of a colorimeter for blood analysis (sold by KYOTO DAIICHI KAGAKU).

Series [3] relates to Lipid in liver and aorta. Briefly: Hypolipidemic activity: change of lipid level in organs and aorta abdominalis, 30 days, high-fat feed. The format is in vivo, Wister strain rats. Conditions: rat, 45.0 mg/kg oral. Here is the method: Wister strain rats weighing 150 ± 20 g were divided into groups of 10 members each and bred with high-fat feed, the same as that used in Example 1. The rats were orally administered ascochlorin, 4-O-methylascochlorin or ethyl-α-(p-chlorophenoxy) isobutylate in a predetermined dose every morning for 30 days. Six hours after the last administration, liver and aorta of each rat were taken out and lipid level in the organs of each of the rats were determined. Lipid present in the liver and aorta was extracted with methanol-chloroform (1:1) by allowing it to stand overnight and the extract was assayed as to lipid level.

Series [4] concerns Serum Lipid. Kind of series: Hypolipidemic activity: change in level of serum lipid, 30 days, high-fat feed. The conditions noted are these: rat. The format is in vivo, Wister strain rats.
The nature of series [5]: Acute toxicity, rat. Conditions: in vivo, ip, male. The source says:
(§1) Acute toxicity of the ascochlorin derivatives was observed by the use of Wister-Imamichi strain male rats weighing 230 ± 30 g and ddY strain male and female mice (5 weeks old) weighing 20 ±3 g which were divided into groups of 10 members each. Japanese native male rabbits weighing 2 kg ± 300 g which were divided into groups of five members each were also used. The test animals were orally or intraperitoneally administered with a different ascochlorin derivative as a suspension in 5% gum arabic aqueous solution, and the toxicity was compared with that of control in which ascochlorin was used.

Series [6] can be described thus: Acute toxicity, mouse. Conditions: in vivo, ip, male.
Excerpt: as §1

[7] abbreviates: 45.0 mg/kg oral, average ± standard error.

With `CCOC(=O)C(C)(C)Oc1ccc(Cl)cc1` [ethyl-α-(p-chlorophenoxy) isobutylate, reference compound], the “Aggregation Inhibition Ratio” value in series [1] amounted to 0%. The molecule also came in with a Cholesterol in serum in series [2] of 103.8 mg/dL. In series [3], the “Cholesterol in Liver, increasing or reducing ratio based on the control” value is “+20.6”; the “Cholesterol in Tunica intima of aorta abdominalis, increasing or reducing ratio based on the control” value was -14.7; the “Phospholipid in Liver, increasing or reducing ratio based on the control” value is “+13.2”; the “Triglyceride in Liver, increasing or reducing ratio based on the control” value is “+10.7”. For the same molecule, in series [3] (average ± standard error), the “Cholesterol in Liver” value was found to be 41.0 ± 4.5 mg/g, the “Phospholipid in Liver” value came out at 79.5 ± 3.1 mg/g and the “Triglyceride in Liver” value was 24.2 ± 2.2 mg/g. Besides, in series [4] (45.0 mg/kg oral), the “Serum Cholesterol, increasing or reducing ratio based on the control” value is recorded as “+7.9”; the “Serum Free fatty acid, increasing or reducing ratio based on the control” value was -10.1; the “Serum Phospholipid, increasing or reducing ratio based on the control” value is reported as -0.7; the “Serum Triglyceride, increasing or reducing ratio based on the control” value is -9.2. In series [4] (45.0 mg/kg oral), the “Serum β-Lipoprotein, increasing or reducing ratio based on the control” value was -3.7. Besides, in series [4] (setting [7]), the “Serum Cholesterol” value is 115.3 ± 5.5 mg/dL, the “Serum Free fatty acid” value was 45.2±1.6 μ eq./dl, the “Serum Phospholipid” value came to 135.9 ± 13.6 mg/dL and the “Serum Triglyceride” value came to 72.1 ± 4.4 mg/dL. In addition, the “Serum β-Lipoprotein” value in series [4] (setting [7]) was 738 ± 46 mg/dL. The “lowering of lipids in serum, liver and aorta (such effects)” value in series [4] (oral, groups of Tables IV and V) is given as “such effects were not observed”.
As a reminder, the LD50 is the dose expected to kill half of the subjects tested. A low value points to greater toxicity. For `CCOc1c(Cl)c(C)c(C=O)c(O)c1C/C=C(C)/C=C/C1(C)C(C)CCC(=O)C1C` (stereo not shown) [4-O-ethylascochlorin], the figures for the LD50 in series [5] and in series [6] were 5100 mg/kg and 5600 mg/kg, respectively. For the same molecule, the “Aggregation Inhibition Ratio” value in series [1] was determined as 55.3%. The same molecule gave a Cholesterol in serum in series [2] of 82.2 mg/dL.
`CCC(C)Oc1c(Cl)c(C)c(C=O)c(O)c1C/C=C(C)/C=C/C1(C)C(C)CCC(=O)C1C` (stereo not shown) [4-O-sec-butylascochlorin]: the “Aggregation Inhibition Ratio” value in series [1] was 51.1%. In addition, the Cholesterol in serum in series [2] is 89.1 mg/dL.
As for `CC(=O)Oc1ccccc1C(=O)O` [acetyl salicylic acid, reference compound], the “Aggregation Inhibition Ratio” value in series [1] turned out to be 73.1%.
Take `CCCCOc1c(Cl)c(C)c(C=O)c(O)c1C/C=C(C)/C=C/C1(C)C(C)CCC(=O)C1C` (stereo not shown) [4-O-n-butylascochlorin]: the “Aggregation Inhibition Ratio” value in series [1] is on record as 53.7%. Also, in series [2], the Cholesterol in serum worked out at 86.9 mg/dL.
In the same order, the values of `CCCOc1c(Cl)c(C)c(C=O)c(O)c1C/C=C(C)/C=C/C1(C)C(C)CCC(=O)C1C` (stereo not shown) [4-O-n-propylascochlorin] are 56.5% and 84.3 mg/dL.
Regarding `CC(/C=C/C1(C)C(C)CCC(=O)C1C)=C\Cc1c(O)c(C=O)c(C)c(Cl)c1OC(C)(C)C` (stereo not shown) [4-O-tert-butylascochlorin], the “Aggregation Inhibition Ratio” value in series [1] is 60.5%. In series [2], this molecule came in with a Cholesterol in serum of 82.7 mg/dL.
As to `CC(/C=C/C1(C)C(C)CCC(=O)C1C)=C\Cc1c(O)c(C=O)c(C)c(Cl)c1OCC(C)C` (stereo not shown) [4-O-isobutylascochlorin], in series [1], the “Aggregation Inhibition Ratio” value was determined as 48.8%. Besides, the Cholesterol in serum in series [2] was determined as 88.5 mg/dL.
The corresponding values for `CC(/C=C/C1(C)C(C)CCC(=O)C1C)=C\Cc1c(O)c(C=O)c(C)c(Cl)c1OC(C)C` (stereo not shown) [4-O-isopropylascochlorin] are 57.2% and 85.6 mg/dL.
